Experimental data: patent US11584714B2 (priority 2018, dated 2023)
Where a name gives a salt, the structure may show the parent alone. Read-outs that look alike come from different tables or passages of the source.

Assays:
Assay type in all cases: biochemical
MASP-2 (CCP1-CCP2-SP) = MASP-2 (CCP1-CCP2-SP) (Homo sapiens (Human), UniProt O00187); assay: biochemical; settings: for MASP-2 vs. thrombin selectivity: selectivity for MASP-2 inhibition versus thrombin
mMASP-2 = mMASP-2 (Mus musculus (Mouse), UniProt Q91WP0); assay: Enzymatic inhibition of mMASP-2; settings: read-out: mMASP-2 Ki
Sequence of mMASP-2 (Q91WP0 20-685): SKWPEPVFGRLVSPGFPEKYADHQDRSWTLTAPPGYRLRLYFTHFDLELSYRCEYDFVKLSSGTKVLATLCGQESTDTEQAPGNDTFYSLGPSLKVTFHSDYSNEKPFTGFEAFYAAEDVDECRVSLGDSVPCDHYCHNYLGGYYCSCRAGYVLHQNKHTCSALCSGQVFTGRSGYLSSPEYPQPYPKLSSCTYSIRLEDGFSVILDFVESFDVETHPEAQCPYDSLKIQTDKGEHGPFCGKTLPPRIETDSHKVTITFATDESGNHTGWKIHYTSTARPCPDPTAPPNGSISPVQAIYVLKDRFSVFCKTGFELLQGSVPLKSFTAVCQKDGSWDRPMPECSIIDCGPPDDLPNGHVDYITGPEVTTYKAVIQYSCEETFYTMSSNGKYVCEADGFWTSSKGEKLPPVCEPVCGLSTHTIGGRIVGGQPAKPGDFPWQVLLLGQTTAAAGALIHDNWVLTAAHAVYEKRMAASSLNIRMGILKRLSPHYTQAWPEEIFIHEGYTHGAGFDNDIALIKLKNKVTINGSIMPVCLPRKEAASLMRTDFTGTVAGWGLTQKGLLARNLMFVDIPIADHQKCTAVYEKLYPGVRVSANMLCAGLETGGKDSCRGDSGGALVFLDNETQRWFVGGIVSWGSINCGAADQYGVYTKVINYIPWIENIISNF

human α-thrombin = human α-thrombin (Homo sapiens (Human), UniProt P00734); assay: Enzymatic assay for thrombin (Boc-VPR-AMC substrate)

Sequence of MASP-2 (CCP1-CCP2-SP) (O00187 445-686): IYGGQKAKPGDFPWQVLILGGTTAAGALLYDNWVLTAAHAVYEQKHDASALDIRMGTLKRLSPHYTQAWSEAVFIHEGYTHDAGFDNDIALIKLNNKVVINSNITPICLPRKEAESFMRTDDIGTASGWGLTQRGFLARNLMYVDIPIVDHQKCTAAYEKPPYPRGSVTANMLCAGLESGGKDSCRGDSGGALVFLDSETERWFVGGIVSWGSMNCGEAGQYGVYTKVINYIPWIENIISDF

SMILES | Ki (MASP-2 (CCP1-CCP2-SP); read-out: MASP-2 Ki) | MASP-2 vs. thrombin selectivity (MASP-2 (CCP1-CCP2-SP)) | Ki (mMASP-2) | Ki (human α-thrombin; Thrombin Ki (μM)) | Ki (MASP-2 (CCP1-CCP2-SP)) | Ki (human α-thrombin; read-out: Thrombin Ki)
CC[C@H](NC(=O)[C@H]1C[C@H](c2ccccc2)CN1)C(=O)NCc1ccc(C(=N)N)cc1 [compound 1290, (2R,4R)—N—((S)-1-((4-carbamimidoylbenzyl)amino)-1-oxobutan-2-yl)-4-phenylpyrrolidine-2-carboxamide] | < 500 nM | ** (≥5.0 to <25-fold) | < 500 nM | 0.5 to 2.5 µM | – | –
CC(C)COC(=O)NC(=N)c1ccc(CNC(=O)[C@H](C)NC(=O)[C@H]2C[C@H](c3ccccc3)CN2)cc1 [compound 1293, Isobutyl (imino(4-(((S)-2-((2R,4R)-4-phenylpyrrolidine-2-carboxamido)propanamido)methyl)phenyl)methyl)carbamate] | – | * (≥1.0 to <5.0-fold) | 2500 to 10000 nM | – | 2500 to 10000 nM | > 25 µM
C[C@H](NC(=O)c1cc(-c2ccccc2)n[nH]1)C(=O)NCc1ccc(C(=N)N)cc1 [compound 1295, (S)—N-(1-((4-Carbamimidoylbenzyl)amino)-1-oxopropan-2-yl)-3-phenyl-1H-pyrazole-5-carboxamide] | < 500 nM | *** (≥25 to <100-fold) | < 500 nM | 2.5 to 10 µM | – | –
C[C@H](NC(=O)[C@H](N)CCc1ccccc1)C(=O)NCc1ccnc(N)c1 [compound 1296, (R)-2-Amino-N—((S)-1-(((2-aminopyridin-4-yl)methyl)amino)-1-oxopropan-2-yl)-4-phenylbutanamide Dihydrochloride] | – | ** (≥5.0 to <25-fold) | > 25000 nM | – | 2500 to 10000 nM | > 25 µM
Cc1cc(Cl)cc(CNC(=O)[C@H](C)NC(=O)[C@H]2C[C@H](c3ccccc3)CN2)c1O [compound 1298, (2R,4R)—N—((S)-1-((5-chloro-2-hydroxy-3-methylbenzyl)amino)-1-oxopropan-2-yl)-4-phenylpyrrolidine-2-carboxamide Hydrochloride] | < 500 nM | – | 2500 to 10000 nM | – | – | > 25 µM
Cc1cc(Cl)cc(CNC(=O)[C@H](C)NC(=O)[C@H](N)CCc2ccccc2)c1O [compound 1299, (R)-2-Amino-N—((S)-1-((5-chloro-2-hydroxy-3-methylbenzyl)amino)-1-oxopropan-2-yl)-4-phenylbutanamide Hydrochloride] | < 500 nM | **** (≥100-fold) | 10000 to 25000 nM | – | – | > 25 µM
C[C@H](NC(=O)[C@H]1C[C@H](c2ccccc2)CN1)C(=O)NCc1ccc(C(=N)N)c(F)c1 [compound 1300, (2R,4R)—N—((S)-1-((4-Carbamimidoyl-3-fluorobenzyl)amino)-1-oxopropan-2-yl)-4-phenylpyrrolidine-2-carboxamide Di-trifluoroacetate salt] | < 500 nM | *** (≥25 to <100-fold) | < 500 nM | 2.5 to 10 µM | – | –
C[C@H](NC(=O)[C@H]1C[C@H](c2ccccc2)CN1)C(=O)NCc1cc(Cl)c[nH]c1=O [compound 1301, (2R,4R)—N—((S)-1-(((5-Chloro-2-oxo-1,2-dihydropyridin-3-yl)methyl)amino)-1-oxopropan-2-yl)-4-phenylpyrrolidine-2-carboxamide Hydrochloride] | – | – | > 25000 nM | – | 2500 to 10000 nM | > 25 µM
CCc1cccc([C@H]2CN[C@@H](C(=O)N[C@@H](C)C(=O)NCc3ccc(C(=N)N)cc3)C2)c1 [compound 1302, (2R,4S)—N—((S)-1-((4-Carbamimidoylbenzyl)amino)-1-oxopropan-2-yl)-4-(3-ethylphenyl)pyrrolidine-2-carboxamide Dihydrochloride] | < 500 nM | *** (≥25 to <100-fold) | < 500 nM | 0.5 to 2.5 µM | – | –
CCc1cccc([C@H]2CN[C@@H](C(=O)N[C@@H](C)C(=O)NCc3ccc(N)nc3C)C2)c1 [compound 1303, (2R,4S)—N—((S)-1-(((6-Amino-2-methylpyridin-3-yl)methyl)amino)-1-oxopropan-2-yl)-4-(3-ethylphenyl)pyrrolidine-2-carboxamide Dihydrochloride] | < 500 nM | *** (≥25 to <100-fold) | 2500 to 10000 nM | – | – | > 25 µM
Cc1nc(N)ccc1CNC(=O)[C@H](C)NC(=O)[C@H]1C[C@H](Cc2ccccc2)CN1 [compound 1304, (2R,4S)—N—((S)-1-(((6-Amino-2-methylpyridin-3-yl)methyl)amino)-1-oxopropan-2-yl)-4-benzylpyrrolidine-2-carboxamide Dihydrochloride] | < 500 nM | *** (≥25 to <100-fold) | 500 to 2500 nM | 0.5 to 2.5 µM | – | –
